Series [1] is described as follows: Solubility of sample preparation upon visual inspection. The class given is physicochemical. On the procedure: Briefly, 12.5 mg of the herbal composition 2 contents was weighed, dissolved in 312.5 μl of DMSO and the volume was made up to 10 ml with 100% methanol. Further dilutions were done in 100% methanol containing 3.125% of DMSO. […] For calculation purposes the sample was considered to be 100% soluble.
Gallic acid (reference inhibitor) preparation. For gallic acid, a stock of 200 μg/ml was prepared by dissolving 2 mg of gallic acid in 10 ml of methanol. Further dilutions were made as required with methanol.
Briefly, 29.73 mg of the Herbal composition 2 contents was weighed, dissolved in 500 μl of DMSO and the volume was made up to 25 ml with phosphate buffered saline. […] The sample was filtered and the filtrate was used for the assay. For calculation purposes the sample was considered to be 100% soluble.
Trolox (reference inhibitor) preparation, For trolox, a stock of […] was prepared by dissolving 2 mg of trolox in 2 ml of phosphate buffered saline. […] Further dilutions were made as required with phosphate buffered saline.
Briefly, 8 mg of the Herbal composition 2 contents was weighed, dissolved in 200 μl of DMSO and the volume was made up to 2 ml with 0.1M phosphate buffer pH 7.4. Further dilutions were done in 0.1M phosphate buffer pH 7.4 containing 10% of DMSO. […] For calculation purposes the sample was considered to be 100% soluble.
(§1) Gallic acid (reference inhibitor) preparation, For gallic acid, a stock of 500 μg/ml was prepared by dissolving 5 mg of gallic acid in 10 ml of 0.1M phosphate buffer pH 7.4. […] The assay was carried out as per the method of Yen et al. with modifications. In brief, the reaction mixture contained 0.1M phosphate buffer pH 7.4/vehicle buffer/positive control/test sample of various concentrations, 292.5 μM NADH, 37.5 μM NBT and 15 μM PMS. The plate was mixed and incubated at 25° C. for 5 minutes. The absorbance was measured at 560 nm in a micro-plate reader (Versamax, Molecular devices). A control reaction was carried out without test samples.

Series [2] is described as follows: DPPH radical scavenging assay (Experiment 2). The class given is biochemical. As to the method: Gallic acid (reference inhibitor) preparation. For gallic acid, a stock of 200 μg/ml was prepared by dissolving 2 mg of gallic acid in 10 ml of methanol. Further dilutions were made as required with methanol. […] In brief, the total reaction mixture contained methanol/vehicle buffer/positive control/various concentrations of test solution and DPPH to a final concentration of 0.132 mM. The reaction mixture was incubated at 25° C. for 20 minutes. Following incubation the absorbance was read at 510 nm using a micro-well plate reader (Molecular devices Versamax microplate reader). A control reaction was carried out without test samples. The % inhibition values were calculated as follows: [formula] Where, Absorbance=Final Absorbance−Initial absorbance. IC50 was calculated using log-probit analysis.

Series [3] is described as follows: Super oxide radical scavenging assay (NADH/NBT/PMS). The class given is biochemical. On the procedure:
as §1, with “samples. The % inhibition values were calculated as follows: [formula] IC50 was calculated using log-probit analysis.” for “samples.”

A further series has as its system rat pancreatic islets. Briefly: Insulin secretion in rat pancreatic islets (ELISA). The format is cell-based. Particulars: 3 μM. An excerpt:
The objective of the experiment is to evaluate the effect of herbal supplement test composition on insulin secretion in rat pancreatic islets. Insulin, a peptide hormone, is secreted by pancreatic β-cells and is a key regulator in glucose homeostasis. Insulin deficiency leads to insulin-dependent (type 1) diabetes, whereas resistance to insulin action is common in non-insulin-dependent diabetes (type 2), obesity, and endocrine dysfunctions. The pancreatic β-cells are known to be sensitive to the glucose concentration in the blood. When the blood glucose levels are high they secrete insulin into the blood; when the levels are low they cease their secretion of this hormone into the general circulation. Insulin released by the β-cells is the main regulator of glucose levels.
Firstly, the herbal supplement composition is dissolved in DMSO with sonication for 15 min and centrifuged at 10,000 rpm for 10 minutes at room temperature to remove insoluble debris. Glyburide (CAS: 10238-21-8) and Glucose are used as reference compounds in the present experiment. Glyburide (CAS: 10238-21-8) is dissolved in DMSO and used at 3 μM. […]
At the end of the 1 hr incubation period, 20 μl of supernatant is gently transferred to another plate. Insulin secretion is measured using the Mercodia Rat Insulin ELISA kit according to the manufacturer's protocol. […]

Series [4] in a line: DPPH radical scavenging activity, cell-free assay (Experiment 7). The format is biochemical. Particulars: 200 μM DPPH, 30 min. On the procedure: The objective of this experiment is to evaluate the effect of the supplement concentration on DPPH radical scavenging activity in a cell-free assay. The supplement concentration is dissolved in DMSO with sonication for 15 min and centrifuged at 10,000 rpm for 10 min at room temperature to remove insoluble debris. 2,2-Diphenyl-1-picrylhydrazyl (DPPH) is used as a reagent for this experiment. DPPH is an antioxidant reagent that is used as a free radical trap or scavenger. The color of DPPH changes from red to yellow as its scavenging activity increases. This is measured by absorbance at 517 nm. The reference compound used is Trolox (CAS: 53188-07-1). The Trolox is dissolved in DMSO and used at different concentrations. Trolox is used as positive control.
A reaction mix is made in 200 μL methanol containing 200 μM of DPPH and various concentrations of the supplement. The mixture is mixed gently with a pipette and left to stand for 30 min in the dark, after which absorbance readings are taken at 517 nm. The change in DPPH absorbance is calculated relative to the absorbance of DPPH alone i.e. without the supplement. The DMSO concentration in the assay is maintained at less than equal to 1.0%. The data is fit to a non-linear regression using Graph pad Prism (version 5.0). […]

For a further series, the system named is LDL oxidation. The series is described as follows: LDL oxidation inhibition assay, human serum, copper sulphate (Experiment 3). The format is biochemical. As to the method: The sample was filtered and the filtrate was used for the assay. […] Trolox (reference inhibitor) preparation, For trolox, a stock of […] was prepared by dissolving 2 mg of trolox in 2 ml of phosphate buffered saline. […] Further dilutions were made as required with phosphate buffered saline. The assay was carried out as per the method of Hodgson et al with modifications. In brief, the reaction mixture contained phosphate buffered saline/vehicle buffer/positive control/test sample of various concentrations and serum from fasting human. Copper sulphate solution was added to the reaction mixture to start the reaction. The reaction mix was mixed and read immediately at 234 nm using a UV-VIS spectrophotometer, for the initial reading, and incubated. After the completion of incubation period, the final absorbance was measured at 234 nm. A control reaction was carried out without test samples. The % inhibition values were calculated as follows: [formula] Where, Absorbance=Final Absorbance−Initial absorbance. IC50 was calculated using log-probit analysis.

The next series has as its system Caco-2 cells. Briefly: NBD-cholesterol uptake in Caco-2 cells. The class given is cell-based, human. Particulars: positive control, 1.25, 2.5, 5 and 10 μM, 48 hrs. On the procedure: The objective of the experiment is to evaluate the effect of the supplement composition on cholesterol uptake in Caco-2 (human epithelial colorectal adenocarcinoma) cells. Cholesterol is both an important structural component of cell membranes and an early intermediate in hormone and bile acid biosynthesis. The supplement composition is dissolved in Dimethyl Sulphoxide (DMSO) with sonication for 15 min and centrifuged at 10,000 rpm for 10 min at room temperature to remove insoluble debris. The reference compound used in the present experiment is U-18666A (CAS: 3039-71-2), which increases cholesterol uptake by inhibiting trafficking of synthesized cholesterol. The U-18666A is dissolved in DMSO and used at a concentration of about 1.25, 2.5, 5 and 10 μM. Moreover, U-18666A is used as a positive control. The reagent used is 3-hexanoyl-NBD Cholesterol. Caco-2 cells are maintained at 60-70% confluence in complete growth medium EMEM containing 20% FBS and required antibiotic. For the assay, cells are harvested using 0.25% trypsin EDTA. The trypsinized cells are centrifuged at 1200 rpm for 5 minutes and re-suspended in growth medium. […] At the end of the incubation period, the plates are washed twice with PBS and cholesterol uptake is calculated by measuring NBD cholesterol fluorescence (Ex 485 nm, Em 535 nm). […]

Series [5] has as its system Low Density Lipoproteins, Human Plasma. Briefly: LDL oxidation in a cell-free system, Cu2+ induced (Experiment 10). The class given is biochemical. The following applies: reference compounds, FIG. 6B.

Values after ≈ are worked out from the molar mass of the structure shown. Where two headings read alike, the source gives them in different places.

Data on five molecules can be found in US20210220419A1, “Herbal Nutraceutical Formulation to Reduce Oxidative Stress, Viral and Microbial Infections, and Inflammation” (priority 2017, published 2021).

In the case of `O=C(O)c1cc(O)c(O)c(O)c1` [Gallic Acid, Gallic acid], the “Solubility upon visual inspection” value in series [1] and in series [1] (pH 7.4) was “approximately 100%” throughout. Further, the “% Inhibition (Mean ± SEM), DPPH” value is 8.71 ± 1.12% in series [2] (0.5 μg/ml), 32.14 ± 2.42% in series [2] (1.5 μg/ml), 60.58 ± 2.84% in series [2] (2.5 μg/ml) and 80.52 ± 0.57% in series [2] (5 μg/ml). Also, the “IC50 (95% Confidence Interval), DPPH radical scavenging” value in series [2] (log-probit analysis) came out at 2.09 µg/mL (≈ 12.3 µM). For the same molecule, the “% Inhibition (Mean ± SEM), super oxide radical” value in series [3] (5 μg/ml) is on record as 27.00 ± 3.37%; in series [3] (10 μg/ml), 32.89 ± 3.26%; in series [3] (20 μg/ml), 47.80 ± 4.26%; in series [3] (40 μg/ml) it was 69.50 ± 1.00%; in series [3] (80 μg/ml) it was 83.67 ± 0.00%. Further, in series [3] (log-probit analysis), the “IC50 (95% Confidence Interval), super oxide radical scavenging” value came out at 17.86 µg/mL (≈ 105 µM).

As to `COc1ccc(Cl)cc1C(=O)NCCc1ccc(S(=O)(=O)NC(=O)NC2CCCCC2)cc1` [Glyburide], the “Insulin secretion, effect in words” value in the series with rat pancreatic islets is reported as “significant increase”.

In the case of `Cc1c(C)c2c(c(C)c1O)CCC(C)(C(=O)O)O2` (centres unmarked) [Trolox], in series [1], the “Solubility upon visual inspection” value was “approximately 100%”. In series [4], the “EC50, DPPH scavenging activity” value is 28 µg/mL (≈ 112 µM). The “% Inhibition (Mean ± SEM), LDL oxidation” value with LDL oxidation (0.25 μM) came out at 48.80 ± 6.21%; in the series with LDL oxidation (0.5 μM), 73.07 ± 3.39%; with LDL oxidation (1.0 μM), 76.33 ± 0.07%; in the series on LDL oxidation (2.0 μM), 79.04 ± 0.64%. Moreover, the IC50 with LDL oxidation (log-probit analysis, read-out: IC50 (95% Confidence Interval), LDL oxidation inhibition) was 180 nM.

Consider `CCN(CC)CCO[C@H]1CC[C@@]2(C)C(=CC[C@@H]3[C@@H]2CC[C@]2(C)C(=O)CC[C@@H]32)C1` [U-18666A], for which the “Increase in NBD-cholesterol uptake” value in the series on Caco-2 cells is “up to 25%”.

With `O=C1O[C@H]([C@@H](O)CO)C(O)=C1O` [ascorbic acid], the “Inhibition of LDL oxidation, in words” value in series [5] is listed as “significant inhibition”.
